Target: Recombinant human HSD17B13 enzyme (Homo sapiens (Human), UniProt Q7Z5P4)
Experiment: HSD17b13 NAD(P)H-Glo Biochemical Assay
Settings: 50 uM estradiol, 1 mM NAD+; read-out: HSD17β13 IC50
Description: Recombinant human HSD17B13 enzyme. Substrate: estradiol (Sigma β-Estradiol E8875), 100 mM in DMSO. […] Assay buffer final concentration: 20 mM Tris pH7.4 with 0.002% Tween-20 and 0.02% BSA. […] Enzymatic activity detected by NAD(P)H-Glo™ Detection System (Promega G9062).
Inhibitor compounds were serially diluted in DMSO and then further diluted in assay buffer to a 10× concentration consisting of 1% DMSO.
HSD17b13 enzyme was diluted in 1× assay buffer to the desired enzyme concentration based on the specific activity of the enzyme lot. 20 uL of diluted enzyme was added to each well along with 2.5 uL of 10× inhibitor solution. Assay plate was incubated at RT for 20 minutes, and then 2.5 uL of a 10× substrate/cofactor mix was added to each well for a final concentration of 50 uM estradiol and 1 mMNAD+. Assay plate was incubated at 37° C. for 3 hours. NAD(P)H-Glo™ Detection System reagents were prepared according to manufacturer's specifications, and 25 uL was added to each well. After incubating for 1 hour at RT, luminescence was measured.

Recombinant human HSD17B13 enzyme, sequence (Q7Z5P4 20-300): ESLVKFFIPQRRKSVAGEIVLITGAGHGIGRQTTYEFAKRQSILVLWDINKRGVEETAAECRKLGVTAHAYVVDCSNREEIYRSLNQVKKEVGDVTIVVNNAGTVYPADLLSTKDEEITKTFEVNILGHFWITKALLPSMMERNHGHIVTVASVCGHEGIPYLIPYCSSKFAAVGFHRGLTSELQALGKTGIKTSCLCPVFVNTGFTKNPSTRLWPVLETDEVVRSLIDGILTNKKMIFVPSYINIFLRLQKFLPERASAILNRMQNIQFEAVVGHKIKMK

SMILES	IC50 [µM]
Oc1cnc(-c2ccc3c(cnn3-c3cc(O)c(F)c(F)c3)c2)nc1 [Compound 16.02, 2-(1-(3,4-Difluoro-5-hydroxyphenyl)-1H-indazol-5-yl)pyrimidin-5-ol]	1 to 30
Oc1cncc(-n2ncc3cc(-c4ccc(O)c(Cl)c4)ccc32)c1 [Compound 17, 5-(5-(3-Chloro-4-hydroxyphenyl)-1H-indazol-1-yl)pyridin-3-ol]	0.1 to 1
CS(=O)(=O)N1CCN(c2cc3cn(-c4ccc(F)c(O)c4F)nc3cn2)CC1 [Compound 19.08, 2,6-Difluoro-3-(5-(4-(methylsulfonyl)piperazin-1-yl)-2H-pyrazolo[3,4-c]pyridine-2-yl)phenol]	1 to 30
CS(=O)(=O)N1CCN(c2cc3cnn(-c4ccc(F)c(O)c4)c3cn2)CC1 [Compound 19.09, 2-Fluoro-5-(5-(4-(methylsulfonyl)piperazin-1-yl)-1H-pyrazolo[3,4-c]pyridine-1-yl)phenol]	1 to 30
CS(=O)(=O)N1CCN(c2cc3cn(-c4ccc(F)c(O)c4)nc3cn2)CC1 [Compound 19.10, 2-Fluoro-5-(5-(4-(methylsulfonyl)piperazin-1-yl)-2H-pyrazolo[3,4-c]pyridine-2-yl)phenol]	1 to 30
CS(=O)(=O)N1CCN(c2cc3cnn(-c4cccc(O)c4F)c3cn2)CC1 [Compound 19.11, 2-Fluoro-3-(5-(4-(methylsulfonyl)piperazin-1-yl)-1H-pyrazolo[3,4-c]pyridine-1-yl)phenol]	1 to 30
CS(=O)(=O)N1CCN(c2cc3cnn(-c4cc(O)cc(OC(F)(F)F)c4)c3cn2)CC1 [Compound 19.12, 3-(5-(4-(Methylsulfonyl)piperazin-1-yl)-1H-pyrazolo[3,4-c]pyridine-1-yl)-5-(trifluoromethoxy)phenol]	1 to 30
CS(=O)(=O)N1CCN(c2cc3cn(-c4cc(O)cc(OC(F)(F)F)c4)nc3cn2)CC1 [Compound 19.13, 3-(5-(4-(Methylsulfonyl)piperazin-1-yl)-2H-pyrazolo[3,4-c]pyridin-2-yl)-5-(trifluoromethoxy)phenol]	1 to 30
CS(=O)(=O)N1CCN(c2cc3cnn(-c4ccc(Cl)c(O)c4)c3cn2)CC1 [Compound 19.14, 2-Chloro-5-(5-(4-(methylsulfonyl)piperazin-1-yl)-1H-pyrazolo[3,4-c]pyridine-1-yl)phenol]	1 to 30
CS(=O)(=O)N1CCN(c2cc3cn(-c4ccc(Cl)c(O)c4)nc3cn2)CC1 [Compound 19.15, 2-Chloro-5-(5-(4-(methylsulfonyl)piperazin-1-yl)-2H-pyrazolo[3,4-c]pyridine-2-yl)phenol]	1 to 30
CS(=O)(=O)N1CCN(c2cc3cnn(-c4cc(O)cc(C(F)(F)F)c4)c3cn2)CC1 [Compound 19.16, 3-(5-(4-(Methylsulfonyl)piperazin-1-yl)-1H-pyrazolo[3,4-c]pyridine-1-yl)-5-(trifluoromethyl)phenol]	1 to 30
CS(=O)(=O)N1CCN(c2cc3cnn(-c4cc(O)c(Cl)c(F)c4)c3cn2)CC1 [Compound 19.17, 2-Chloro-3-fluoro-5-(5-(4-(methylsulfonyl)piperazin-1-yl)-1H-pyrazolo[3,4-c]pyridine-1-yl)phenol]	1 to 30
CS(=O)(=O)N1CCN(c2cc3cnn(-c4cc(O)c(F)cn4)c3cn2)CC1 [Compound 19.19, 5-Fluoro-2-(5-(4-(methylsulfonyl)piperazin-1-yl)-1H-pyrazolo[3,4-c]pyridine-1-yl)pyridine-4-ol]	1 to 30
CS(=O)(=O)N1CCN(c2cc3cn(-c4cc(O)c(F)cn4)nc3cn2)CC1 [Compound 19.20, 5-Fluoro-2-(5-(4-(methylsulfonyl)piperazin-1-yl)-2H-pyrazolo[3,4-c]pyridine-2-yl)pyridine-4-ol]	1 to 30
Cc1cc(-n2ncc3cc(N4CCN(S(C)(=O)=O)CC4)ncc32)cc(O)c1F [Compound 19.23, 2-Fluoro-3-methyl-5-(5-(4-(methylsulfonyl)piperazin-1-yl)-1H-pyrazolo[3,4-c]pyridine-1-yl)phenol]	1 to 30
Cc1cc(-n2cc3cc(N4CCN(S(C)(=O)=O)CC4)ncc3n2)cc(O)c1F [Compound 19.24, 2-Fluoro-3-methyl-5-(5-(4-(methylsulfonyl)piperazin-1-yl)-2H-pyrazolo[3,4-c]pyridine-2-yl)phenol]	1 to 30
CS(=O)(=O)N1CCN(c2cc3cnn(-c4ccc(C(F)(F)F)c(O)c4F)c3cn2)CC1 [Compound 19.25, 2-Fluoro-3-(5-(4-(methylsulfonyl)piperazin-1-yl)-1H-pyrazolo[3,4-c]pyridine-1-yl)-6-(trifluoromethyl)phenol]	1 to 30
CS(=O)(=O)N1CCN(c2cc3cn(-c4ccc(C(F)(F)F)c(O)c4F)nc3cn2)CC1 [Compound 19.26, 2-Fluoro-3-(5-(4-(methylsulfonyl)piperazin-1-yl)-2H-pyrazolo[3,4-c]pyridine-2-yl)-6-(trifluoromethyl)phenol]	1 to 30

Other lines, results leading:

IC50 [µM]	SMILES
1 to 30	Oc1ccc(-c2ccc3c(cnn3-c3cc(O)c(F)c(F)c3)c2)nc1 [Compound 16, 6-(1-(3,4-Difluoro-5-hydroxyphenyl)-1H-indazol-5-yl)pyridine-3-ol]
0.1 to 1	Oc1cnc(-c2ccc3c(cnn3-c3cc(O)c(F)c(F)c3)c2)c(Cl)c1 [Compound 16.01, 5-Chloro-6-(1-(3,4-difluoro-5-hydroxyphenyl)-1H-indazol-5-yl)pyridine-3-ol]
0.1 to 1	Oc1ccc(-c2ccc3c(cnn3-c3cc(O)c(F)c(F)c3)c2)cn1 [Compound 16.03, 5-(1-(3,4-Difluoro-5-hydroxyphenyl)-1H-indazol-5-yl)pyridine-2-ol]
0.1 to 1	CC1(C)CC=C(c2cc3cnn(-c4cc(O)c(F)c(C(F)(F)F)c4)c3cc2F)CC1 [Compound 18, 5-(5-(4,4-Dimethylcyclohex-1-en-1-yl)-6-fluoro-1H-indazol-1-yl)-2-fluoro-3-(trifluoromethyl)phenol]
0.1 to 1	CC1(C)CC=C(c2ccc3c(cnn3-c3cc(O)c(F)c(C(F)(F)F)c3)c2)CC1 [Compound 18.01, 5-(5-(4,4-Dimethylcyclohex-1-en-1-yl)-1H-indazol-1-yl)-2-fluoro-3-(trifluoromethyl)phenol]
0.1 to 1	CC1(C)CC=C(c2ccc3nn(-c4cc(O)c(F)c(C(F)(F)F)c4)cc3c2)CC1 [Compound 18.02, 5-(5-(4,4-Dimethylcyclohex-1-en-1-yl)-2H-indazol-2-yl)-2-fluoro-3-(trifluoromethyl)phenol]
< 0.1	CS(=O)(=O)N1CCN(c2cc3cnn(-c4cc(O)c(F)c(C(F)(F)F)c4)c3cc2Cl)CC1 [Compound 19, 5-(6-Chloro-5-(4-(methylsulfonyl)piperazin-1-yl)-1H-indazol-1-yl)-2-fluoro-3-(trifluoromethyl)phenol]
0.1 to 1	CS(=O)(=O)N1CCN(c2cc3cnn(-c4cc(O)c(F)c(C(F)(F)F)c4)c3cc2F)CC1 [Compound 19.01, 2-Fluoro-5-(6-fluoro-5-(4-(methylsulfonyl)piperazin-1-yl)-1H-indazol-1-yl)-3-(trifluoromethyl)phenol]
0.1 to 1	CS(=O)(=O)N1CCN(c2cc3cnn(-c4cc(O)c(F)c(Cl)c4)c3cc2F)CC1 [Compound 19.02, 3-Chloro-2-fluoro-5-(6-fluoro-5-(4-(methylsulfonyl)piperazin-1-yl)-1H-indazol-1-yl)phenol]
0.1 to 1	CS(=O)(=O)N1CCN(c2cc3cnn(-c4ccc(Cl)c(O)c4F)c3cc2F)CC1 [Compound 19.03, 6-Chloro-2-fluoro-3-(6-fluoro-5-(4-(methylsulfonyl)piperazin-1-yl)-1H-indazol-1-yl)phenol]
0.1 to 1	CC1(C)CN(S(C)(=O)=O)CCN1c1cc2cnn(-c3cc(O)c(F)c(C(F)(F)F)c3)c2cn1 [Compound 19.04, 5-(5-(2,2-Dimethyl-4-(methylsulfonyl)piperazin-1-yl)-1H-pyrazolo[3,4-c]pyridine-1-yl)-2-fluoro-3-(trifluoromethyl)phenol]
0.1 to 1	CC1(C)CN(S(C)(=O)=O)CCN1c1cc2cn(-c3cc(O)c(F)c(C(F)(F)F)c3)nc2cn1 [Compound 19.05, 5-(5-(2,2-Dimethyl-4-(methylsulfonyl)piperazin-1-yl)-2H-pyrazolo[3,4-c]pyridine-2-yl)-2-fluoro-3-(trifluoromethyl)phenol]
0.1 to 1	CS(=O)(=O)N1CCN(c2cc3cnn(-c4cc(C(F)(F)F)cc(O)c4F)c3cn2)CC1 [Compound 19.06, 2-Fluoro-3-(5-(4-(methylsulfonyl)piperazin-1-yl)-1H-pyrazolo[3,4-c]pyridine-1-yl)-5-(trifluoromethyl)phenol]
0.1 to 1	CS(=O)(=O)N1CCN(c2cc3cnn(-c4ccc(F)c(O)c4F)c3cn2)CC1 [Compound 19.07, 2,6-Difluoro-3-(5-(4-(methylsulfonyl)piperazin-1-yl)-1H-pyrazolo[3,4-c]pyridine-1-yl)phenol]
0.1 to 1	CS(=O)(=O)N1CCN(c2cc3cn(-c4cc(O)c(Cl)c(F)c4)nc3cn2)CC1 [Compound 19.18, 2-Chloro-3-fluoro-5-(5-(4-(methylsulfonyl)piperazin-1-yl)-2H-pyrazolo[3,4-c]pyridine-2-yl)phenol]
0.1 to 1	CS(=O)(=O)N1CCN(c2cc3cnn(-c4cc(O)c(F)c(Cl)c4)c3cn2)CC1 [Compound 19.21, 3-Chloro-2-fluoro-5-(5-(4-(methylsulfonyl)piperazin-1-yl)-1H-pyrazolo[3,4-c]pyridine-1-yl)phenol]
0.1 to 1	CS(=O)(=O)N1CCN(c2cc3cn(-c4cc(O)c(F)c(Cl)c4)nc3cn2)CC1 [Compound 19.22, 3-Chloro-2-fluoro-5-(5-(4-(methylsulfonyl)piperazin-1-yl)-2H-pyrazolo[3,4-c]pyridine-2-yl)phenol]

— US20240034736A1, “HSD17B13 INHIBITORS AND USES THEREOF” (FL2022-001, Inc., priority 2020, published 2024)
